Measurements as given in patent US7323044B1, “Biocidal compositions” (Troy Corporation, priority 2007, dated 2008).

Tests used:
[1] = Amount of castor oil based co-solvent required to keep OBPA in solution with plasticizer; format: physicochemical; settings: with commercial plasticizers (e.g., diisodecyl phthalate); about −13° C. to about 30° C.
Experimental: As a general rule, OBPA solutions which are transported or stored at outdoor conditions, without the benefit of dedicated heating or cooling equipment, may be exposed to temperatures in the range of about −13° C. to about 30° C. […] For OBPA solutions which will be transported or stored at outdoor conditions, we prefer that the weight ratio of OBPA to the solvent is about 0.12 or less in the present invention, more preferably in the range of about 0.083 to about 0.12, and most preferably about 0.10. For OBPA solutions which will be temperature-controlled during shipment and storage, the invention can be successfully practiced over a broader range of OBPA to solvent weight ratio.

[2] = background statement; cited from earlier work

c1ccc2c(c1)Oc1ccccc1[As]2O[As]1c2ccccc2Oc2ccccc21 [OBPA, 10,10′-oxybisphenoxarsine]
Castor oil based co-solvent required to keep 1 gram of OBPA in solution [1]: at least 8 grams | Solubility of OBPA in plasticizers currently favored for manufacturing flexible PVC [2]: less than 1 wt %
